2 compounds from patent US20030180341A1, “Biocompatible hydrophilic films from polymeric mini-emulsions for application to skin” (priority 2002, published 2003) can be followed below.

Test [1] in a line: Antibacterial properties of films and mini-emulsions containing caprylic fatty acid.
The nature of test [2]: Antifungal properties of films containing caprylic fatty acid. The conditions noted are these: dried film.
Test [3] can be described thus: Anti-microbial effect of mini-emulsion/film compositions with sodium hypochlorite. The conditions noted are these: provided in the mini-emulsion/film compositions, preferably between about 0.1 and about 0.5% by weight of solids.

Consider `CCCCCCCC(=O)O` [caprylic fatty acid], for which the antibacterial effect entry in test [1] (dried film) is “mild antibacterial effect”. For the same compound, in test [1] (liquid mini-emulsion), the antibacterial properties entry is listed as “broad spectrum antibacterial properties”. The antifungal properties result in test [2] is on record as “broad spectrum antifungal properties”.

Consider `OCl` [sodium hypochlorite], for which the anti-microbial effect entry in test [3] is given as “effective as a broad spectrum anti-microbial”.
